Source: patent US20230391792A1, “METHODS AND COMPOSITIONS FOR TARGETED PROTEIN DEGRADATION” (Ranok Therapeutics (Hangzhou) Co. Ltd., priority 2020, published 2023)

Target: T1, HSP90α protein (N-terminal) (Homo sapiens, UniProt P07900)
T1 construct: purchased BPS Bioscience #50298
Test: HSP90α-binding fluorescent polarization (FP) assay, competition with BODIPY-labeled RNK04010
Details: probe RNK04010 (BODIPY-labeled) 5 nM, 25° C. 300 min
Description: (§1) Binding of test compounds to HSP90α protein was measured by fluorescent polarization (FP) using the HSP90α (N-terminal) Assay Kit (BPS Bioscience, #50298), following the manufacturer's instructions, except as noted. Fluorescently labeled HSP90-binding compounds, either the provided FITC-geldanamycin (5 nM final concentration) or RNK04010, a triazolone-based HSP90-binding small molecule labeled with BODIPY through a piperizine-phenyl linker (5 nM final concentration) were employed. A 2.5-fold serial dilution of each test compound ranging from 20 μM to 5.2 nM was assayed for binding to HSP90α. After the final step of adding HSP90α protein to each assay well, plates were mixed by brief shaking, incubated at 25° C. for 120 min for FITC-geldanamycin or 300 min for RNK04010, and fluorescence was measured using a PerkinElmer EnVision Plate Reader.
(§2) HSP90α-binding fluorescent polarization (FP) assays measuring competition with the fluorescently labeled HSP90 binders, FITC-geldanamycin or RNK04010 (BODIPY-labeled), were applied to assess the binding capabilities of CHAMP molecules to HSP90.

Row | IC50 [µM] | SMILES
1 | 0.1 to 1 | Cc1sc2c(c1C)C(c1ccc(Cl)cc1)=NC(CC(=O)N1CCC(CN3CCN(Cc4ccc(-n5c(O)nnc5-c5cc(C(C)C)c(O)cc5O)cc4)CC3)CC1)c1nnc(C)n1-2 (centres unmarked) [Compound 1]
2 | > 1 | CCOc1cc(N2CCC(C(=O)N3CCN(C(=O)O[C@H]4CC[C@H](Nc5cc(-n6nc(C(F)(F)F)c7c6CC(C)(C)CC7=O)ccc5C(N)=O)CC4)CC3)CC2)ccc1Nc1ncc2c(n1)N(C)c1ccccc1C(=O)N2C [Compound 152]
3 | > 1 | Cc1sc2c(c1C)C(c1ccc(Cl)cc1)=N[C@@H](CC(=O)NCCOCCNC(=O)O[C@H]1CC[C@H](Nc3cc(-n4nc(C(F)(F)F)c5c4CC(C)(C)CC5=O)ccc3C#N)CC1)c1nnc(C)n1-2 [Compound 154]
4 | > 1 | CCOc1cc(N2CCC(C(=O)N3CCC(COc4ccc(Nc5cc(-n6nc(C(F)(F)F)c7c6CC(C)(C)CC7=O)ccc5C(N)=O)cc4)CC3)CC2)ccc1Nc1ncc2c(n1)N(C)c1ccccc1C(=O)N2C [Compound 159]
5 | > 1 | Cc1sc2c(c1C)C(c1ccc(Cl)cc1)=N[C@@H](CC(=O)NCCOCCOCCOCCOc1ccc(Nc3cc(-n4nc(C(F)(F)F)c5c4CC(C)(C)CC5=O)ccc3C(N)=O)cc1)c1nnc(C)n1-2 [Compound 162]
6 | > 1 | CC[C@@H](C)Nc1cc(C(=O)NC2CC3CCC(C2)N3c2ccc(C(=O)c3ccc(CN4CCN(CC5CCN(C(=O)C[C@@H]6N=C(c7ccc(Cl)cc7)c7c(sc(C)c7C)-n7c(C)nnc76)CC5)CC4)cc3)cn2)c(C)cc1C(N)=O (some centres unmarked) [Compound 165]
7 | > 1 | Cc1sc2c(c1C)C(c1ccc(Cl)cc1)=N[C@@H](CC(=O)NCCOCCN[C@@H](C)C(=O)N[C@H](C(=O)N1CCC[C@H]1C(=O)Nc1snnc1-c1ccccc1)C1CCCCC1)c1nnc(C)n1-2 [Compound 167]

Target: T1, HSP90α protein (N-terminal)
Test: HSP90α-binding fluorescent polarization (FP) assay, competition with FITC-geldanamycin
Details: probe FITC-geldanamycin 5 nM, 25° C. 120 min
Description: as §1, §2

Row | IC50 [µM] | SMILES
8 | 0.1 to 1 | Cc1sc2c(c1C)C(c1ccc(Cl)cc1)=NC(CC(=O)N1CCC(CN3CCN(Cc4ccc(-n5c(O)nnc5-c5cc(C(C)C)c(O)cc5O)cc4)CC3)CC1)c1nnc(C)n1-2 (centres unmarked) [Compound 1]
9 | 0.1 to 1 | Cc1sc2c(c1C)C(c1ccc(Cl)cc1)=N[C@@H](CC(=O)NCCOCCN1CCC(Cc3ccc(-n4c(O)nnc4-c4cc(C(C)C)c(O)cc4O)cc3)CC1)c1nnc(C)n1-2 [Compound 9]
10 | 0.1 to 1 | Cc1sc2c(c1C)C(c1ccc(Cl)cc1)=N[C@@H](CC(=O)NCCOc1ccccc1CN(C)Cc1ccc(-n3c(O)nnc3-c3cc(C(C)C)c(O)cc3O)cc1)c1nnc(C)n1-2 [Compound 14]
11 | 0.1 to 1 | Cc1sc2c(c1C)C(c1ccc(Cl)cc1)=N[C@@H](CC(=O)NCCOc1ccc(CN(C)Cc3ccc(-n4c(O)nnc4-c4cc(C(C)C)c(O)cc4O)cc3)cc1)c1nnc(C)n1-2 [Compound 21]
12 | 0.1 to 1 | Cc1sc2c(c1C)C(c1ccc(Cl)cc1)=N[C@@H](CC(=O)NCC(=O)NCCOc1ccc(-n3c(O)nnc3-c3cc(C(C)C)c(O)cc3O)cc1)c1nnc(C)n1-2 [Compound 24]
13 | 0.1 to 1 | Cc1sc2c(c1C)C(c1ccc(Cl)cc1)=N[C@@H](CC(=O)N1CCC(CCN3CCN(c4ccc(-n5c(O)nnc5-c5cc(C(C)C)c(O)cc5O)cc4)CC3)CC1)c1nnc(C)n1-2 [Compound 28]
14 | 0.1 to 1 | Cc1sc2c(c1C)C(c1ccc(Cl)cc1)=N[C@@H](CCNCc1ccc(-n3c(O)nnc3-c3cc(C(C)C)c(O)cc3O)cc1)c1nnc(C)n1-2 [Compound 31]
15 | 0.1 to 1 | Cc1sc2c(c1C)C(c1ccc(Cl)cc1)=N[C@@H](CC(=O)N[C@@H](C)c1ccc(CN3CCN(Cc4ccc(-n5c(O)nnc5-c5cc(C(C)C)c(O)cc5O)cc4)CC3)cc1)c1nnc(C)n1-2 [Compound 38]
16 | < 0.1 | CCc1cc(-c2nnc(O)n2-c2ccc(CN3CCN(CC4CCN(C(=O)C[C@@H]5N=C(c6ccc(Cl)cc6)c6c(sc(C)c6C)-n6c(C)nnc65)CC4)CC3)cc2)c(O)cc1O [Compound 41]
17 | 0.1 to 1 | Cc1sc2c(c1C)C(c1ccc(Cl)cc1)=N[C@@H](CC(=O)N[C@@H](C)c1ccc(CN3CCC(Cc4ccc(-n5c(O)nnc5-c5cc(C(C)C)c(O)cc5O)cc4)CC3)cc1)c1nnc(C)n1-2 [Compound 44]
18 | 0.1 to 1 | CCc1cc(-c2nnc(O)n2-c2ccc(CN3CCN(CC4CCN(C(=O)C[C@@H]5N=C(c6ccc(Cl)cc6)c6c(sc(C)c6C)-n6c(C)nnc65)CC4)CC3)c(F)c2)c(O)cc1O [Compound 53]
19 | 0.1 to 1 | Cc1cc(-c2nnc(O)n2-c2ccc(CN3CCN(CC4CCN(C(=O)C[C@@H]5N=C(c6ccc(Cl)cc6)c6c(sc(C)c6C)-n6c(C)nnc65)CC4)CC3)c(F)c2)c(O)cc1O [Compound 54]
20 | 0.1 to 1 | CCOc1cc(N2CCC(C(=O)NCOCCN3CCC(Cc4ccc(-n5c(O)nnc5-c5cc(C(C)C)c(O)cc5O)cc4)CC3)CC2)ccc1Nc1ncc2c(n1)N(C)c1ccccc1C(=O)N2C [Compound 111]
21 | 0.1 to 1 | CCOc1cc(N2CCC(C(=O)NCCOCCOc3ccc(-n4c(O)nnc4-c4cc(CC)c(O)cc4O)cc3)CC2)ccc1Nc1ncc2c(n1)N(C)c1ccccc1C(=O)N2C [Compound 112]
22 | 0.1 to 1 | CCc1cc(-c2nnc(O)n2-c2ccc(CN3CCC(C(=O)N4CCC(Nc5ncc(NC(=O)c6cc(C(=O)c7c(Cl)ccc(Cl)c7F)c[nH]6)cn5)CC4)CC3)cc2)c(O)cc1O [Compound 116]
23 | > 1 | CCOc1cc(N2CCC(C(=O)NCCOCCOCCOc3ccc(Nc4cc(-n5nc(C(F)(F)F)c6c5CC(C)(C)CC6=O)ccc4C(N)=O)cc3)CC2)ccc1Nc1ncc2c(n1)N(C)c1ccccc1C(=O)N2C [Compound 161]
24 | > 1 | CCn1c(=O)/c(=C2\Sc3ccccc3N2C)s/c1=C\c1cccc[n+]1CCCCCCNC(=O)C[C@@H]1N=C(c2ccc(Cl)cc2)c2c(sc(C)c2C)-n2c(C)nnc21 [Compound 163]
25 | > 1 | CC[C@@H](C)Nc1cc(C(=O)NC2CC3CCC(C2)N3c2ccc(C(=O)c3ccc(CN4CCN(CC5CCN(C(=O)C[C@@H]6N=C(c7ccc(Cl)cc7)c7c(sc(C)c7C)-n7c(C)nnc76)CC5)CC4)cc3)cn2)c(C)cc1C(N)=O (some centres unmarked) [Compound 165]
26 | > 1 | CC[C@@H](C)Nc1cc(C(=O)NC2CC3CCC(C2)N3c2ccc(C(=O)Nc3ccc(CN4CCN(CC5CCN(C(=O)C[C@@H]6N=C(c7ccc(Cl)cc7)c7c(sc(C)c7C)-n7c(C)nnc76)CC5)CC4)cc3)cn2)ccc1C(N)=O (some centres unmarked) [Compound 166]
